According to patent publication US8247394B2 (Cempra Pharmaceuticals Inc., priority 2010, dated 2012):
Converted amounts (≈) assume the structure as drawn. Like-named read-outs stand apart in the source and are kept apart here.

Tests used:
C. trachomatis = assay: In vitro susceptibility testing of C. trachomatis in cell culture using HEp-2 cells (MIC/MBC); format: cell-based, Chlamydia trachomatis; details: for MBC / MIC90 / MIC: Chlamydia trachomatis
Protocol: Chlamydia isolates: 10 isolates of C. trachomatis in order to determine the MIC90 and MBC90 for each antibiotic.
C. trachomatis: 10 isolates of C. trachomatis, including standard isolates from the ATCC (E-BOUR, F-IC-CAL3, C-HAR32, J-UW-36, L2434, D-UW-57kx, B-HAR-36) and recent clinical isolates N18 (cervical), N19 (cervical), 7015 (infant eye).
In vitro susceptibility testing: Susceptibility testing of C. trachomatis was performed in cell culture using HEp-2 cells grown in 96-well microtiter plates. Each well was inoculated with 0.1 ml of the test strain diluted to yield 10^3 to 10^4 IFU/per ml, centrifuged at 1,700×g for 1 hr and incubated at 35° C. for 1 hr. Wells were then aspirated and overlaid with 0.2 ml of medium containing 1 μg of cycloheximide per ml and serial two fold dilutions of the test drug. Duplicate plates were inoculated. After incubation at 35° C. for 48-72 hrs, cultures were fixed and stained for inclusions with fluorescein-conjugated antibody to the lipopolysaccharide genus antigen ([…]™, Kallestad Diagnostics, Chaska, Minn.). The minimal inhibitory concentration (MIC) was the lowest antibiotic concentration at which no inclusions are seen. The minimal bactericidal concentration (MBC) was determined by aspirating the antibiotic containing medium, washing wells twice with phosphate buffered saline and adding antibiotic-free medium. Cultures were frozen at −70° C., thawed, passed onto new cells, incubated for 72 hrs then fixed and stained as above. The MBC was the lowest antibiotic concentration that results in no inclusions after passage. All tests were run in triplicate.
Ten isolates of C. trachomatis including standard isolates from the ATCC (E-BOUR, F-IC-CAL3, C-HAR32, J-UW-36, L2434, D-UW-57kx, B-HAR-36) and recent clinical isolates N18 (cervical), N19 (cervical), 7015 (infant eye) were selected for study. Susceptibility testing was performed in cell culture using HEp-2 cells (Roblin et. al. Antimicrob. Agents Chemother. 42:194-196 (1998)) at State University of New York, Downstate Medical Center (Brooklyn, N.Y., USA).

N. gonorrhoeae = assay: Reference agar dilution susceptibility testing (CLSI M07-A8) of N. gonorrhoeae clinical isolates; format: cell-based, Neisseria gonorrhoeae; details: for % by category, R (resistant); resistance rate / % by category, S (susceptible): CLSI criteria, 35 strains
Protocol: Thirty-five clinical isolates of N. gonorrhoeae collected in the United States (USA), Asia and European medical centers since 2005 were tested using reference agar dilution methods per Clinical and Laboratory Standards Institute (CLSI) M07-A8 (Clinical and Laboratory Standards Institute. 2009. M07-A8, Methods for dilution antimicrobial susceptibility tests for bacteria that grow aerobically; approved standard—eighth edition. Wayne, Pa.: CLSI) and M100-S20 documents (Clinical and Laboratory Standards Institute. 2010. M100-S20, Performance standards for antimicrobial susceptibility testing, 20th informational supplement. Wayne, Pa.: CLSI). […] Quality control (QC) ranges and interpretive criteria for comparator compounds were as published by CLSI (Clinical and Laboratory Standards Institute. 2010. M100-S20, Performance standards for antimicrobial susceptibility testing, 20th informational supplement. Wayne, Pa.: CLSI).

[1] = blood; cited from earlier work
[2] = Neisseria gonorrhoeae, 35 N. gonorrhoeae strains, read-out: MIC50
[3] = number of isolates among 35 strains
[4] = 10 strains of C. trachomatis, read-out: MBC90

CC[C@H]1OC(=O)[C@H](C)[C@@H](O[C@H]2C[C@@](C)(OC)[C@@H](O)[C@H](C)O2)[C@H](C)[C@@H](O[C@@H]2O[C@H](C)C[C@H](N(C)C)[C@H]2O)[C@](C)(O)C[C@@H](C)CN(C)[C@H](C)[C@@H](O)[C@]1(C)O [Azithromycin, azithromycin]
MBC Range (C. trachomatis; 10 strains): 0.015 to 0.12 µg/mL
MIC 90% (C. trachomatis; 10 strains): 0.12 µg/mL (≈ 0.16 µM)
MIC Range (C. trachomatis; 10 strains): 0.015 to 0.12 µg/mL
MBC (C. trachomatis; 10 strains, read-out: MBC 90%): 0.12 µg/mL (≈ 0.16 µM)
MIC90 (C. trachomatis; 10 strains of C. trachomatis): 0.12 µg/mL (≈ 0.16 µM)
% by category, R (resistant); resistance rate (N. gonorrhoeae): 0.0%
MIC50 (N. gonorrhoeae; [2]): 0.25 µg/mL (≈ 0.334 µM)
Occurrences at MIC 0.06 μg/ml (N. gonorrhoeae; [3]): 1
Occurrences at MIC 0.12 μg/ml (N. gonorrhoeae; [3]): 15
Occurrences at MIC 0.25 μg/ml (N. gonorrhoeae; [3]): 12
Occurrences at MIC 0.5 μg/ml (N. gonorrhoeae; [3]): 5
Occurrences at MIC 1 μg/ml (N. gonorrhoeae; [3]): 1
Occurrences at MIC 2 μg/ml (N. gonorrhoeae; [3]): 1

CC(=O)O[C@H]1C[C@@]2(C)[C@@H](C[C@@H](O)[C@H]3[C@@]4(C)CC[C@@H](O)[C@@H](C)[C@@H]4CC[C@@]32C)/C1=C(\CCC=C(C)C)C(=O)[O-].[Na+] [CEM 102, Sodium fusidate]
MIC (C. trachomatis; strain 7015): 0.5 µg/mL
MBC (C. trachomatis; strain 7015, read-out: MBC): 0.5 µg/mL
MIC (C. trachomatis; strain Ct D): 0.5 µg/mL
MBC (C. trachomatis; strain Ct D, read-out: MBC): 0.5 µg/mL
MIC (C. trachomatis; strain Ct E): 0.5 µg/mL
MBC (C. trachomatis; strain Ct E, read-out: MBC): 0.5 µg/mL
MIC (C. trachomatis; strain Ct F): 0.5 µg/mL
MBC (C. trachomatis; strain Ct F, read-out: MBC): 0.5 µg/mL
MIC (C. trachomatis; strain Ct H): 0.5 µg/mL
MBC (C. trachomatis; strain Ct H, read-out: MBC): 0.5 µg/mL
MIC (C. trachomatis; strain Ct I): 0.5 µg/mL
MBC (C. trachomatis; strain Ct I, read-out: MBC): 0.5 µg/mL
MIC (C. trachomatis; strain Ct J): 0.5 µg/mL
MBC (C. trachomatis; strain Ct J, read-out: MBC): 0.5 µg/mL
MIC (C. trachomatis; strain L2): 0.25 µg/mL
MBC (C. trachomatis; strain L2, read-out: MBC): 0.25 µg/mL
MIC (C. trachomatis; strain N18): 0.25 µg/mL
MBC (C. trachomatis; strain N18, read-out: MBC): 0.25 µg/mL
MIC (C. trachomatis; strain N19): 0.125 µg/mL
MBC (C. trachomatis; strain N19, read-out: MBC): 0.125 µg/mL
MIC90 (C. trachomatis; 10 strains of C. trachomatis): 0.5 µg/mL
MBC (C. trachomatis; [4]): 0.5 µg/mL

CO/N=C(\C(=O)N[C@@H]1C(=O)N2C(C(=O)O)=C(CSc3nc(=O)c(=O)[nH]n3C)CS[C@H]12)c1csc(N)n1 [Ceftriaxone, ceftriaxone]
% by category, R (resistant); resistance rate (N. gonorrhoeae): 0.0%
% by category, S (susceptible) (N. gonorrhoeae): 100.0/— %
Occurrences at MIC 0.015 μg/ml (N. gonorrhoeae; [3]): 6
Occurrences at MIC 0.03 μg/ml (N. gonorrhoeae; [3]): 6
Occurrences at MIC 0.06 μg/ml (N. gonorrhoeae; [3]): 3
Occurrences at MIC 0.12 μg/ml (N. gonorrhoeae; [3]): 2
Occurrences at MIC ≦0.008 μg/ml (N. gonorrhoeae; [3]): 18

CC[C@H]1OC(=O)[C@H](C)[C@@H](O[C@H]2C[C@@](C)(OC)[C@@H](O)[C@H](C)O2)[C@H](C)[C@@H](O[C@@H]2O[C@H](C)C[C@H](N(C)C)[C@H]2O)[C@](C)(OC)C[C@@H](C)C(=O)[C@H](C)[C@@H](O)[C@]1(C)O [Clarithromycin, clarithromycin]
MBC Range (C. trachomatis; 10 strains): 0.015 to 0.12 µg/mL
MIC 90% (C. trachomatis; 10 strains): 0.06 µg/mL (≈ 0.0802 µM)
MIC Range (C. trachomatis; 10 strains): 0.015 to 0.12 µg/mL
MBC (C. trachomatis; 10 strains, read-out: MBC 90%): 0.06 µg/mL (≈ 0.0802 µM)
MIC90 (C. trachomatis; 10 strains of C. trachomatis): 0.06 µg/mL (≈ 0.0802 µM)

C[C@H]1c2cccc(O)c2C(=O)C2=C(O)[C@]3(O)C(=O)C(C(N)=O)=C(O)[C@@H](N(C)C)[C@@H]3[C@@H](O)[C@@H]21 [Doxycycline, doxycycline]
MBC Range (C. trachomatis; 10 strains): 0.015 to 0.06 µg/mL
MIC 90% (C. trachomatis; 10 strains): 0.06 µg/mL (≈ 0.135 µM)
MIC Range (C. trachomatis; 10 strains): 0.015 to 0.06 µg/mL
MBC (C. trachomatis; 10 strains, read-out: MBC 90%): 0.06 µg/mL (≈ 0.135 µM)
MIC90 (C. trachomatis; 10 strains of C. trachomatis): 0.06 µg/mL (≈ 0.135 µM)

CC(=O)O[C@H]1C[C@@]2(C)[C@@H](C[C@@H](O)[C@H]3[C@@]4(C)CC[C@@H](O)[C@@H](C)[C@@H]4CC[C@@]32C)/C1=C(\CCC=C(C)C)C(=O)O [Fusidic acid]
MBC Range (C. trachomatis; 10 strains): 0.12 to 0.5 µg/mL
MIC 90% (C. trachomatis; 10 strains): 0.5 µg/mL (≈ 0.968 µM)
MIC Range (C. trachomatis; 10 strains): 0.12 to 0.5 µg/mL
MIC range (C. trachomatis; 10 strains): 0.12 to 0.5 µg/mL
MBC (C. trachomatis; 10 strains, read-out: MBC 90%): 0.5 µg/mL (≈ 0.968 µM)
MIC90 (C. trachomatis; 10 strains of C. trachomatis): 0.5 µg/mL (≈ 0.968 µM)
MBC (C. trachomatis; [4]): 0.5 µg/mL (≈ 0.968 µM)
Occurrences at MIC 0.25 μg/ml (N. gonorrhoeae): 12
Occurrences at MIC 0.5 μg/ml (N. gonorrhoeae): 17
Occurrences at MIC 1 μg/ml (N. gonorrhoeae): 5
Occurrences at MIC 2 μg/ml (N. gonorrhoeae): 1
MIC90 (N. gonorrhoeae; Neisseria gonorrhoeae, 35 N. gonorrhoeae strains): 1 µg/mL (≈ 1.94 µM)
MIC50 (N. gonorrhoeae; [2]): 0.5 µg/mL (≈ 0.968 µM)
Concentration at which active against all strains tested (N. gonorrhoeae; all N. gonorrhoeae strains tested): ≤ 2 µg/mL
protein binding [1]: 95-97%

CC[C@H]1OC(=O)[C@H](C)C(=O)[C@H](C)[C@@H](O[C@@H]2O[C@H](C)C[C@H](N(C)C)[C@H]2O)[C@](C)(OC)C[C@@H](C)C(=O)[C@H](C)[C@H]2N(CCCCn3cnc(-c4cccnc4)c3)C(=O)O[C@]12C [Telithromycin, telithromycin]
MBC Range (C. trachomatis; 10 strains): 0.015 to 0.25 µg/mL
MIC 90% (C. trachomatis; 10 strains): 0.06 µg/mL (≈ 0.0739 µM)
MIC Range (C. trachomatis; 10 strains): 0.015 to 0.25 µg/mL
MBC (C. trachomatis; 10 strains, read-out: MBC 90%): 0.06 µg/mL (≈ 0.0739 µM)
MIC90 (C. trachomatis; 10 strains of C. trachomatis): 0.06 µg/mL (≈ 0.0739 µM)

CN(C)[C@@H]1C(O)=C(C(N)=O)C(=O)[C@@]2(O)C(O)=C3C(=O)c4c(O)cccc4[C@@](C)(O)[C@H]3C[C@@H]12 [Tetracycline, tetracycline]
% by category, R (resistant); resistance rate (N. gonorrhoeae): 34.3%
% by category, S (susceptible) (N. gonorrhoeae): 22.9%
MIC50 (N. gonorrhoeae; [2]): 1 µg/mL (≈ 2.25 µM)
Occurrences at MIC 0.12 μg/ml (N. gonorrhoeae; [3]): 6
Occurrences at MIC 0.25 μg/ml (N. gonorrhoeae; [3]): 2
Occurrences at MIC 0.5 μg/ml (N. gonorrhoeae; [3]): 8
Occurrences at MIC 1 μg/ml (N. gonorrhoeae; [3]): 7
Occurrences at MIC 2 μg/ml (N. gonorrhoeae; [3]): 7
Occurrences at MIC 4 μg/ml (N. gonorrhoeae; [3]): 1
Occurrences at MIC >4 μg/ml (N. gonorrhoeae; [3]): 4

penicillin
MIC50 (N. gonorrhoeae; 35 N. gonorrhoeae strains): 1 µg/mL
% by category, R (resistant); resistance rate (N. gonorrhoeae): 45.7%
% by category, S (susceptible) (N. gonorrhoeae): 22.9%
Occurrences at MIC 0.015 μg/ml (N. gonorrhoeae; [3]): 1
Occurrences at MIC 0.03 μg/ml (N. gonorrhoeae; [3]): 4
Occurrences at MIC 0.06 μg/ml (N. gonorrhoeae; [3]): 3
Occurrences at MIC 0.25 μg/ml (N. gonorrhoeae; [3]): 2
Occurrences at MIC 0.5 μg/ml (N. gonorrhoeae; [3]): 4
Occurrences at MIC 1 μg/ml (N. gonorrhoeae; [3]): 5
Occurrences at MIC 2 μg/ml (N. gonorrhoeae; [3]): 6
Occurrences at MIC 4 μg/ml (N. gonorrhoeae; [3]): 4
Occurrences at MIC >4 μg/ml (N. gonorrhoeae; [3]): 6
